Assay results published in US5102870A, “Treatment and prevention of oral mucositis with growth factors” (Schering AG, priority 1989, dated 1992).

Test system: mucositis induced by the administration of 5-FU in hamsters
Test: 5-fluorouracil plus mechanical irritation induced oral mucositis model, cheek pouch
Type: in vivo, Golden Syrian hamsters
Source text: An animal model for studying the acute effects of chemotherapy and radiotherapy in the oral cavity was developed by Dr. Stephen T. Sonis at Brigham and Women's Hospital, Boston, Mass. This model was particularly suited for testing the efficacy of growth factors on chemotherapy mucositis. This model utilizes an acute regimen of 5-fluorouracil (5-FU) combined with mechanical irritation to induce mucositis. More specifically, intraperitoneal (i.p.) injections of 5-fluorouracil were combined with superficial mechanical mucosal irritation to result in clinical breakdown of the oral mucosa as characterized by ulcerative mucositis in Golden Syrian hamsters. […] For these reasons, it was believed that this model would be extremely beneficial in evaluating growth factors to treat mucositis.
The following experiment was performed to determine the effects of growth factors, specifically TGF-α, on the prevention and healing of mucositis induced by the administration of 5-FU in hamsters. Example 1:
One hundred young male Golden Syrian hamsters were divided into four groups of 25 animals each. Beginning on day 0, animals received twice daily dosing of their cheek pouch buccal mucosa as follows:
Medication was applied in a volume of 0.2 ml of Orabase per cheek pouch. The right cheek pouch was mechanically irritated by superficial scratching starting at day 0, daily until erythematous changes were noted. For most animals, such changes were noted by day 2 and mechanical irritation discontinued. For the remaining animals, mechanical irritation was stopped at day 3. Beginning on day 0, all of the animals received i.p. injections of 5-FU at a dose of 60 mg/kg body weight, with additional dosing on days 5 and 10. The animals were observed and weighed daily. On days 2, 4, 6, 8, 10, 12, 14, 16, 18 and 20, two animals were randomly sacrificed in each group. Cheek pouches were biopsied. The tissue was then placed in 10% formalin for histologic study according to established methods, and subsequently stained with hematoxylin and eosin. The following parameters were evaluated and scored: inflammatory infiltrate, degree of epithelial atropy, extent of epithelial breakdown/ulceration, mitotic activity at would margins and evidence of superficial/secondary infection. Two randomly selected hamsters from each group had their cheek pouches photographed daily. The animals were weighed and observed daily. […] Mucositis was scored using the following established scale:
Grade 0--no evidence of ulcers or mucositis
Grade 1--erythema but no ulceration
Grade 2--1 or 2 small (<2 mm), single ulcers
Grade 3--1 large or 3 or more small ulcers
Grade 4--multiple large ulcers and/or involvement of 50% of pouch mucosal surface area
The animals were evaluated both for the ability of TGF-α to delay the onset and reduce the severity of mucositis. The data presented here are based upon clinical observations. Histologic evaluation of biopsied cheek pouches corroborated these observations.

transforming growth factor-alpha [TGF-α]
averaged mucositis grades (severity of mucositis) (Group III, TGF-α in Orabase 2 μg/dose (low dose), twice daily, compared among groups): best results | development of grade 3/4 mucositis (Group III, TGF-α in Orabase 2 μg/dose, twice daily): did not develop | day of development of grade 3/4 mucositis (Group IV, TGF-α in Orabase 20 μg/dose, twice daily): 9 days | onset of mucositis (development of grade 3 and 4 mucositis) (TGF-α groups vs Group I (none) and Group II (Orabase only)): delayed the onset of mucositis | averaged mucositis grades (severity of mucositis) (groups receiving TGF-α in Orabase (2 or 20 μg/dose), topical to cheek pouch twice daily, 18 day period, vs control groups): lower overall scores
